For 33 compounds, IC50 results are on record in US9221832B2, “Heterocyclic amide derivatives as P2X7 receptor antagonists” (ACTELION PHARMACEUTICALS LTD., priority 2011, dated 2015).

Molecules are shown by their SMILES.

Sequence of human recombinant P2X7 receptor (Q99572 whole entry): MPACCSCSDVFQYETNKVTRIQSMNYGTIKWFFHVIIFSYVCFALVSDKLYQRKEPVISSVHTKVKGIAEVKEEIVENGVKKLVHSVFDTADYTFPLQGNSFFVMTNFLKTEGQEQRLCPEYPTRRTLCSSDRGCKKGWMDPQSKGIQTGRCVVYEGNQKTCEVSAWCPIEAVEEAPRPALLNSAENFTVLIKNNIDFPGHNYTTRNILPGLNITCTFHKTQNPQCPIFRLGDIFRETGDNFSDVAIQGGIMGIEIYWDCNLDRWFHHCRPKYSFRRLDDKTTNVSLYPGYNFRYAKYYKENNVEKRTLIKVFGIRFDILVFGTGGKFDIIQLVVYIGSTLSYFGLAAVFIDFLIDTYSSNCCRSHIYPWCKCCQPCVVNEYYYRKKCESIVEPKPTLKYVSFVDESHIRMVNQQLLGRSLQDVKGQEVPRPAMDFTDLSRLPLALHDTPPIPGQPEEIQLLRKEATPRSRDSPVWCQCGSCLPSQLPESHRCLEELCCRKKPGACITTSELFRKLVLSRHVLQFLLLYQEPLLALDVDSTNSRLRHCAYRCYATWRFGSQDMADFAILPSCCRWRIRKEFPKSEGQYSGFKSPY

This test addresses human recombinant P2X7 receptor (Homo sapiens (Human), UniProt Q99572). Description: YO-PRO assay: P2X7 receptor antagonistic activity. It is filed as cell-based. The settings on record: HEK cells expressing human P2X7. On the procedure: The P2X7 receptor antagonistic activity of the compounds of formula (I) is determined in accordance with the following experimental method.
Cell Line Generation and YO-PRO Assay
Cell line generation was performed in general according to established molecular cloning protocols. Specifically, RNA was extracted from human whole blood using the Qiagen RNeasy kit (Qiagen, CH) according to the manufacturer's instructions. Subsequently cDNA was made (Superscript II, Invitrogen AG, CH) and the human P2X7 gene (genbank ref. BC011913) was amplified with the following primers: […] and […]. The amplified sequence was subsequently ligated into a pcDNA3.1 (+) NotI, NheI digested plasmid. […] Following a 24 h exposure to DNA, cells were trypsinized and re-seeded at low density in the presence of 250 μg Geneticin. Geneticin resistant cells were then selected during two consecutive rounds of cloning by serial limiting dilution with visual inspection. Individual clones were screened for P2X7 expression by applying ATP and recording the resultant uptake of YO-PRO1. Specific cell clones were chosen based on RNA and protein expression. HEK cells stably expressing P2X7 were used to screen drugs using the YO-PRO1 assay. Cells were grown to confluency in adherent culture at 37° C. in a humidified 5% CO2 incubator (split 1/5 every 3-4 days with DMEM, 10% FCS, 1% Penicillin/Streptomycin, 250 μg/ml Geneticin). Adherent cells were detached by incubation with Trypsine (1 ml per 165 cm^2 dish) for 2 minutes, then washed off with 10 ml PBS (without Mg^2+ and Ca^2+), and resuspended in DMEM, 10% FCS, 1% Penicillin/Streptomycin, no Geneticin. […] During this time period, four time points were taken. Each time point comprised the average of several measurements made within a few seconds. […] The FLIPR tetra was equipped with Molecular Devices Screen Works system control software to define and run experimental protocols. […] For IC50 measurements the maximum intensity is plotted against the concentration of compound to determine IC50 values.
For orientation: IC50 means the point on the concentration scale where inhibition reaches its midpoint. On to `O=C(NC1CCOc2ncccc21)C1(c2ccc(F)cc2Cl)CCCC1` (racemic) [Example 59, rac-1-(2-Chloro-4-fluoro-phenyl)-cyclopentanecarboxylic acid (3,4-dihydro-2H-pyrano[2,3-b]pyridin-4-yl)-amide], for which the IC50 is 390 nM.

With `O=C(Cc1cccc(C(F)(F)F)c1Cl)NC1COc2cnc(Cl)cc21` (racemic) [Example 115, rac-N-(5-Chloro-2,3-dihydro-furo[2,3-c]pyridin-3-yl)-2-(2-chloro-3-trifluoromethyl-phenyl)-acetamide], the IC50 was 81 nM.

In the case of `CC(C(=O)NC1COc2ncccc21)c1ccc(Cl)cc1Cl` (single isomer, unassigned) [Example 93, 2-(2,4-Dichloro-phenyl)-N-2,3-dihydro-furo[2,3-b]pyridin-3-yl-propionamide], the IC50 stood at 137 nM.

`Cc1cc(Cl)cc(Cl)c1CC(=O)NC1COc2cnccc21` (single isomer, unassigned) [Example 102, 2-(2,4-Dichloro-6-methyl-phenyl)-N-2,3-dihydro-furo[2,3-c]pyridin-3-yl-acetamide]: the IC50 amounted to 2.2 nM.

As for `O=C(NC1COc2ncccc21)C(CN1CCCC1)c1ccc(Cl)cc1Cl` (stereo not drawn) [Example 81, 2-(2,4-Dichloro-phenyl)-N-2,3-dihydro-furo[2,3-b]pyridin-3-yl-3-pyrrolidin-1-yl-propionamide], the IC50 stood at 1970 nM.

As for `CC(C(=O)NC1COc2ncccc21)c1ccc(Cl)cc1Cl` (single isomer, unassigned) [Example 94, 2-(2,4-Dichloro-phenyl)-N-2,3-dihydro-furo[2,3-b]pyridin-3-yl-propionamide], the IC50 amounted to 11 nM.

Take `COc1cc(C)nc2c1C(NC(=O)Cc1cccc(C(F)(F)F)c1Cl)CO2` (racemic) [Example 135, rac-2-(2-Chloro-3-trifluoromethyl-phenyl)-N-(4-methoxy-6-methyl-2,3-dihydro-furo[2,3-b]pyridin-3-yl)-acetamide]: the IC50 was more than 4780 nM.

In the case of `O=C(Cc1c(Cl)cc(Cl)cc1C1CC1)NC1COc2ncccc21` (racemic) [Example 39, rac-2-(2,4-Dichloro-6-cyclopropyl-phenyl)-N-(2,3-dihydro-furo[2,3-b]pyridin-3-yl)-acetamide], the IC50 stood at 54 nM.

With `Cc1cc(Cl)cc(Cl)c1CC(=O)NC1COc2nnccc21` (racemic) [Example 110, rac-2-(2,4-Dichloro-6-methyl-phenyl)-N-(5,6-dihydro-furo[2,3-c]pyridazin-5-yl)-acetamide], the IC50 stood at 6.7 nM.

Take `Cc1nccc2c1OCC2NC(=O)Cc1ccc(Cl)cc1Cl` (racemic) [Example 100, rac-2-(2,4-Dichloro-phenyl)-N-(7-methyl-2,3-dihydro-furo[2,3-c]pyridin-3-yl)-acetamide]: the IC50 stood at 52 nM.

Take `CC(C(=O)NC1COc2ncccc21)c1ccc(Cl)cc1Cl` (stereo not drawn) [Example 85, 2-(2,4-Dichloro-phenyl)-N-2,3-dihydro-furo[2,3-b]pyridin-3-yl-propionamide]: the IC50 amounted to 15 nM.

Regarding `O=C(Cc1c(F)cccc1Cl)NC1CCOc2ncccc21` (racemic) [Example 50, rac-2-(2-Chloro-6-fluoro-phenyl)-N-(3,4-dihydro-2H-pyrano[2,3-b]pyridin-4-yl)-acetamide], the IC50 stood at 2630 nM.

`O=C(Cc1cc(F)c(Cl)cc1Cl)NC1CCOc2ncccc21` (racemic) [Example 57, rac-2-(2,4-Dichloro-5-fluoro-phenyl)-N-(3,4-dihydro-2H-pyrano[2,3-b]pyridin-4-yl)-acetamide]: the half-inhibitory concentration (IC50) is 1470 nM.

For the compound `N#Cc1cccc(CC(=O)NC2COc3ncccc32)c1Cl` (single isomer, unassigned) [Example 99, 2-(2-Chloro-3-cyano-phenyl)-N-2,3-dihydro-furo[2,3-b]pyridin-3-yl-acetamide], the IC50 was found to be 40 nM.

Regarding `O=C(NC1COc2ncccc21)C(CO)c1ccc(Cl)cc1Cl` (stereo not drawn) [Example 79, 2-(2,4-Dichloro-phenyl)-N-2,3-dihydro-furo[2,3-b]pyridin-3-yl-3-hydroxy-propionamide], the IC50 amounted to 21 nM.

For `O=C(Cc1cccc(C(F)(F)F)c1Cl)NC1COc2ncccc21` (racemic) [Example 34, rac-2-(2-Chloro-3-trifluoromethyl-phenyl)-N-(2,3-dihydro-furo[2,3-b]pyridin-3-yl)-acetamide], the IC50 is 7.4 nM.

Take `Cc1cc(Cl)cc(Cl)c1CC(=O)NC1CCOc2ncccc21` (racemic) [Example 8, rac-2-(2,4-Dichloro-6-methyl-phenyl)-N-(3,4-dihydro-2H-pyrano[2,3-b]pyridin-4-yl)-acetamide]: the IC50 was 43 nM.

For `O=C(COc1ccc(Cl)c(Cl)c1)NC1COc2ncccc21` (racemic) [Example 141, rac-2-(3,4-Dichloro-phenoxy)-N-(2,3-dihydro-furo[2,3-b]pyridin-3-yl)-acetamide], the IC50 was more than 8630 nM.

As to `O=C(Cc1cccc(C(F)F)c1Cl)NC1COc2ncccc21` (racemic) [Example 114, rac-2-(2-Chloro-3-difluoromethyl-phenyl)-N-(2,3-dihydro-furo[2,3-b]pyridin-3-yl)-acetamide], the IC50 was 7.6 nM.

With `Cc1ccc(F)c(CC(=O)NC2COc3ncccc32)c1Cl` (racemic) [Example 42, rac-2-(2-Chloro-6-fluoro-3-methyl-phenyl)-N-(2,3-dihydro-furo[2,3-b]pyridin-3-yl)-acetamide], the IC50 came out at 641 nM.

`O=C(Cc1cccnc1Cl)NC1CCOc2ncccc21` (racemic) [Example 60, rac-2-(2-Chloro-pyridin-3-yl)-N-(3,4-dihydro-2H-pyrano[2,3-b]pyridin-4-yl)-acetamide]: the 50% inhibitory concentration (IC50) came to 780 nM.

Take `O=C(NC1COc2ncccc21)C1CCc2cc(Cl)cc(Cl)c21` (single isomer, unassigned) [Example 147, 5,7-dichloro-N-(2,3-dihydrofuro[2,3-b]pyridin-3-yl)-2,3-dihydro-1H-indene-1-carboxamide]: the IC50 is 40 nM.

Consider `O=C(Cc1cc(F)c(Cl)cc1Cl)NC1COc2ncccc21` (racemic) [Example 41, rac-2-(2,4-Dichloro-5-fluoro-phenyl)-N-(2,3-dihydro-furo[2,3-b]pyridin-3-yl)-acetamide], for which the IC50 was 332 nM.

As for `O=C(Cc1cccc(Cl)c1C(F)(F)F)NC1COc2ncccc21` (racemic) [Example 97, rac-2-(3-Chloro-2-trifluoromethyl-phenyl)-N-(2,3-dihydro-furo[2,3-b]pyridin-3-yl)-acetamide], the IC50 was 15 nM.

Take `O=C(COc1ccc(Cl)cc1Cl)NC1COc2ncccc21` (racemic) [Example 140, rac-2-(2,4-Dichloro-phenoxy)-N-(2,3-dihydro-furo[2,3-b]pyridin-3-yl)-acetamide]: the IC50 was more than 8410 nM.

In the case of `Cc1ccnc2c1C(NC(=O)Cc1cccc(C(F)(F)F)c1Cl)CO2` (racemic) [Example 137, rac-2-(2-Chloro-3-trifluoromethyl-phenyl)-N-(4-methyl-2,3-dihydro-furo[2,3-b]pyridin-3-yl)-acetamide], the IC50 worked out at 37 nM.

For the compound `Cc1ccc(OCC(=O)NC2COc3ncccc32)c(C)c1` (racemic) [Example 142, rac-N-(2,3-Dihydro-furo[2,3-b]pyridin-3-yl)-2-(2,4-dimethyl-phenoxy)-acetamide], the IC50 was more than 9950 nM.

With `O=C(Cc1ccc(Oc2ccccc2)cc1)NC1CCOc2ncccc21` (racemic) [Example 48, rac-N-(3,4-Dihydro-2H-pyrano[2,3-b]pyridin-4-yl)-2-(4-phenoxy-phenyl)-acetamide], the IC50 is 3300 nM.

As for `O=C(Cc1cccc(C(F)(F)F)c1F)NC1COc2ncccc21` (racemic) [Example 90, rac-N-(2,3-Dihydro-furo[2,3-b]pyridin-3-yl)-2-(2-fluoro-3-trifluoromethyl-phenyl)-acetamide], the IC50 worked out at 92 nM.

Turning to `O=C(Cc1c(Cl)ccc(Cl)c1F)NC1COc2ncccc21` (racemic) [Example 77, rac-2-(3,6-Dichloro-2-fluoro-phenyl)-N-(2,3-dihydro-furo[2,3-b]pyridin-3-yl)-acetamide], the IC50 came out at 2480 nM.

As for `COc1ccnc2c1C(NC(=O)Cc1cccc(C(F)(F)F)c1Cl)CO2` (racemic) [Example 139, rac-2-(2-Chloro-3-trifluoromethyl-phenyl)-N-(4-methoxy-2,3-dihydro-furo[2,3-b]pyridin-3-yl)-acetamide], the IC50 stood at 272 nM.

For the compound `N#Cc1cccc(CC(=O)NC2COc3ncccc32)c1Cl` (single isomer, unassigned) [Example 98, 2-(2-Chloro-3-cyano-phenyl)-N-2,3-dihydro-furo[2,3-b]pyridin-3-yl-acetamide], the IC50 is 29 nM.

As to `Cc1cc(Cl)cc(Cl)c1CC(=O)NC1COc2ncccc21` (single isomer, unassigned) [Example 7, 2-(2,4-Dichloro-6-methyl-phenyl)-N-(2,3-dihydro-furo[2,3-b]pyridin-3-yl)-acetamide], the IC50 came out at 3.5 nM.
